Data from BindingDB's records for doi:10.1016/j.bmcl.2009.08.049 (Genentech, 2009).

The molecules below were run against Sonic hedgehog protein (Mus musculus, UniProt Q62226) (assay: Inhibition of SHH in mouse C3H10T1/2 cells by Gli-luciferase reporter gene assay).
Sonic hedgehog protein, sequence (Q62226 25-198 limits assumed): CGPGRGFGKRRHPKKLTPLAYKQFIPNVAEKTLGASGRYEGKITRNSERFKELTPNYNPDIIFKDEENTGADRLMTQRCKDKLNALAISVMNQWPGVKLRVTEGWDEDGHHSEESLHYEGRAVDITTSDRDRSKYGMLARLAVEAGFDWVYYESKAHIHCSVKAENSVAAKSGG
For CS(=O)(=O)c1cccc(C(=O)Nc2ccc(Cl)c(-c3ccccn3)c2)c1 [N-(4-chloro-3-(pyridin-2-yl)phenyl)-3-(methylsulfonyl)benzamide], the IC50 was 120 nM.
In the case of Cc1nc(C(F)(F)F)ccc1C(=O)Nc1ccc(Cl)c(-c2cc3ccccc3[nH]2)c1 [N-(4-chloro-3-(1H-indol-2-yl)phenyl)-2-methyl-6-(trifluoromethyl)nicotinamide], the IC50 is reported as 500 nM.
O=C(Nc1ccc(Cl)c(-c2ccccn2)c1)c1cccc(Cl)c1 [3-chloro-N-(4-chloro-3-(pyridin-2-yl)phenyl)benzamide] showed an IC50 of 1500 nM.
Molecule Cc1nc(C(F)(F)F)ccc1C(=O)Nc1ccc(Cl)c(-c2nc3ccccc3s2)c1 [N-(3-(benzo[d]thiazol-2-yl)-4-chlorophenyl)-2-methyl-6-(trifluoromethyl)nicotinamide] has an IC50 of 70 nM.
Cc1nc(C(F)(F)F)ccc1C(=O)Nc1ccc(Cl)c(-n2cccn2)c1 [N-(4-chloro-3-(1H-pyrazol-1-yl)phenyl)-2-methyl-6-(trifluoromethyl)nicotinamide] was tested, and the IC50 was 450 nM.
O=C(Nc1ccc(Cl)c(-c2ccccn2)c1)c1ccccc1Cl [2-chloro-N-(4-chloro-3-(pyridin-2-yl)phenyl)benzamide] was tested, and the IC50 was 110 nM.
Work on Cc1nc(C(F)(F)F)ccc1C(=O)Nc1ccc(Cl)c(-c2cc3ccccn3c2)c1 [N-(4-chloro-3-(indolizin-2-yl)phenyl)-2-methyl-6-(trifluoromethyl)nicotinamide] yielded an IC50 of 4200 nM.
O=C(Nc1ccc(Cl)c(-c2ccccn2)c1)c1ccccn1 [N-(4-chloro-3-(pyridin-2-yl)phenyl)picolinamide] was tested, and the IC50 was 3000 nM.
O=C(Nc1ccc(Cl)c(-c2ccccn2)c1)c1ccccc1 [N-(4-chloro-3-(pyridin-2-yl)phenyl)benzamide] gave an IC50 of 800 nM.
With Cc1nc(C(F)(F)F)ccc1C(=O)Nc1ccc(Cl)c(-c2cc3ccccn3n2)c1 [N-(4-chloro-3-(pyrazolo[1,5-a]pyridin-2-yl)phenyl)-2-methyl-6-(trifluoromethyl)nicotinamide] the IC50 was 170 nM.
Molecule CS(=O)(=O)c1ccc(C(=O)Nc2ccc(Cl)c(-c3ccccn3)c2)cc1 [N-(4-chloro-3-(pyridin-2-yl)phenyl)-4-(methylsulfonyl)benzamide] has an IC50 of 40 nM.
Cc1nc(C(F)(F)F)ccc1C(=O)Nc1ccc(Cl)c(-c2cn3ccsc3n2)c1 [N-(4-chloro-3-(imidazo[2,1-b]thiazol-6-yl)phenyl)-2-methyl-6-(trifluoromethyl)nicotinamide] was tested, and the IC50 was 200 nM.
Cc1nc(C(F)(F)F)ccc1C(=O)Nc1ccc(Cl)c(-c2cnc3ccccc3n2)c1 [N-(4-chloro-3-(quinoxalin-2-yl)phenyl)-2-methyl-6-(trifluoromethyl)nicotinamide] gave an IC50 of 52 nM.
For O=C(Nc1ccc(Cl)c(-c2ccccn2)c1)c1cccnc1 [N-(4-chloro-3-(pyridin-2-yl)phenyl)nicotinamide], the IC50 was 600 nM.
O=C(Nc1ccc(Cl)c(-c2ccccn2)c1)c1ccncc1 [N-(4-chloro-3-(pyridin-2-yl)phenyl)isonicotinamide] gave an IC50 of 700 nM.
For Cc1nc(C(F)(F)F)ccc1C(=O)Nc1ccc(Cl)c(-c2nc3ccccc3n2C)c1 [N-(4-chloro-3-(1-methyl-1H-benzo[d]imidazol-2-yl)phenyl)-2-methyl-6-(trifluoromethyl)nicotinamide], the IC50 was 9 nM.
Cc1nc(C(F)(F)F)ccc1C(=O)Nc1ccc(Cl)c(-c2ccncc2)c1 [N-(4-chloro-3-(pyridin-4-yl)phenyl)-2-methyl-6-(trifluoromethyl)nicotinamide] showed an IC50 of 2400 nM.
For Cc1nc(C(F)(F)F)ccc1C(=O)Nc1ccc(Cl)c(-c2nc3c(n2C)CCCC3)c1 [N-(4-chloro-3-(1-methyl-4,5,6,7-tetrahydro-1H-benzo[d]imidazol-2-yl)phenyl)-2-methyl-6-(trifluoromethyl)nicotinamide], the IC50 was 150 nM.
With Cc1nc(C(F)(F)F)ccc1C(=O)Nc1ccc(Cl)c(-n2cc3ccccc3n2)c1 [N-(4-chloro-3-(2H-indazol-2-yl)phenyl)-2-methyl-6-(trifluoromethyl)nicotinamide] the IC50 was 80 nM.
For Cc1nc(C(F)(F)F)ccc1C(=O)Nc1ccc(Cl)c(-c2cccnc2)c1 [N-(4-chloro-3-(pyridin-3-yl)phenyl)-2-methyl-6-(trifluoromethyl)nicotinamide], the IC50 was 10000 nM.
Cc1nc(C(F)(F)F)ccc1C(=O)Nc1ccc(Cl)c(-c2ccn(C)n2)c1 [N-(4-chloro-3-(1-methyl-1H-pyrazol-3-yl)phenyl)-2-methyl-6-(trifluoromethyl)nicotinamide] gave an IC50 of 550 nM.
With Cc1c[nH]c(-c2cc(NC(=O)c3ccc(C(F)(F)F)nc3C)ccc2Cl)n1 [N-(4-chloro-3-(5-methyl-1H-imidazol-2-yl)phenyl)-2-methyl-6-(trifluoromethyl)nicotinamide] the IC50 was 256 nM.
For Cc1ccc(C(=O)Nc2ccc(Cl)c(-c3ccccn3)c2)c(C)n1 [N-(4-chloro-3-(pyridin-2-yl)phenyl)-2,6-dimethylnicotinamide], the IC50 was 130 nM.
Work on Cc1nc(C(F)(F)F)ccc1C(=O)Nc1ccc(Cl)c(-c2cc[nH]n2)c1 [N-(4-chloro-3-(1H-pyrazol-3-yl)phenyl)-2-methyl-6-(trifluoromethyl)nicotinamide] yielded an IC50 of 9000 nM.
Molecule O=C(Nc1ccc(Cl)c(-c2ccccn2)c1)c1ccc(Cl)cc1 [4-chloro-N-(4-chloro-3-(pyridin-2-yl)phenyl)benzamide] has an IC50 of 1500 nM.
With Cc1nc(C(F)(F)F)ccc1C(=O)Nc1ccc(Cl)c(-c2nc3ccccc3[nH]2)c1 [N-(3-(1H-benzo[d]imidazol-2-yl)-4-chlorophenyl)-2-methyl-6-(trifluoromethyl)nicotinamide] the IC50 was 12 nM.
Molecule Cc1nc(C(F)(F)F)ccc1C(=O)Nc1ccc(Cl)c(-c2ccccn2)c1 [N-(4-chloro-3-(pyridin-2-yl)phenyl)-2-methyl-6-(trifluoromethyl)nicotinamide] has an IC50 of 42 nM.
Cc1nc(C(F)(F)F)ccc1C(=O)Nc1ccc(Cl)c(-c2cnccn2)c1 [N-(4-chloro-3-(pyrazin-2-yl)phenyl)-2-methyl-6-(trifluoromethyl)nicotinamide] showed an IC50 of 1700 nM.
For Cc1nc(C(F)(F)F)ccc1C(=O)Nc1ccc(Cl)c(-c2ncccn2)c1 [N-(4-chloro-3-(pyrimidin-2-yl)phenyl)-2-methyl-6-(trifluoromethyl)nicotinamide], the IC50 was 8000 nM.
In the case of Cc1nc(C(F)(F)F)ccc1C(=O)Nc1ccc(Cl)c(C(=O)Nc2ccccc2)c1 [N-(4-chloro-3-(phenylcarbamoyl)phenyl)-2-methyl-6-(trifluoromethyl)nicotinamide], the IC50 is reported as 140 nM.
